Data from patent US8148092B2, “System and method for performing G protein coupled receptor (GPCR) cell assays using waveguide-grating sensors” (Corning Incorporated, priority 2005, dated 2012).

Legend:
CHO cells = test: optical LID (waveguide grating biosensor) mass redistribution response of adherent CHO cells after compound addition; assay type: cell-based, Chinese Hamster; details: for ligand-induced mass redistribution signal (total change in response): CHO cells, compound 10 μM, FIGS. 13, 15, 18
Excerpt: Referring to FIG. 3, there is shown a flowchart illustrating the basic steps of a method 300 for monitoring in real time the mass redistribution due to an agonist-induced GPCR activation within living cells 108 using an optical LID biosensor 104 in accordance with the present invention. The method 300 includes the following steps: (a) provide an optical LID biosensor 104 (step 302); (b) place a certain number of living cells 108 in a medium which covers the optical LID biosensor 104 such that the living cells 108 attach onto the surface 110 of the optical LID biosensor 104 (step 304); (c) optionally apply a buffer solution at least once into the cell medium (step 306); (d) apply a solution containing a compound (agonist) into the cell medium (step 308); and (e) interrogate the optical LID biosensor 104 and monitor the time dependent optical response 201 of the living cells 108 cultured on the optical LID biosensor 104 (step 310).
It is known that CHO cells 108 endogenously express beta adrenergic receptors, alpha2-adrenergic receptors, P2Y receptors, as well as beta-arrestin and GRKs. It is also known that muscarinic receptors are endogenously expressed at very low level in the CHO cells 108. In this experiment, approximately ˜5×10^4 CHO cells 108 were placed within each well of a microplate that contained an array of optical LID biosensors 104. The CHO cells 108 were then cultured in 150 μl serum medium for 24 hours to ensure that the CHO cells 108 became adherent to the substrate surface 110.
Since muscarinic receptors are endogenously expressed at very low level in CHO cells 108; oxotremorine M, agonist for muscarinic receptors, served as a control. Each of these agonists was directly applied to a different one of the wells which contained the serum medium. The optical responses were then collected by the optical LID system 100.

[1] = test system: CHO cells with stably overexpressed rat muscarinic receptor subtype 1 (M1 CHO); test: optical LID mass redistribution response of CHO cells with stably overexpressed rat muscarinic receptor subtype 1 after compound addition; assay type: cell-based, Chinese Hamster; details: compound 10 μM, compared with CHO cells, FIGS. 14, 15, 18
Experimental: FIG. 14 a time-dependent LID response of engineered Chinese Hamster Ovary (CHO) cells with over-expressed rat muscarnic receptor subtype 1 (thus this cell line is termed as M1 CHO) before and after compound addition. The compound concentration used is 10 μM for all compounds.

Row | SMILES | ligand-induced mass redistribution signal (total change in response) (CHO cells) | agonist-induced time-dependent optical LID response (CHO cells; CHO cells in serum medium, ATP 100 μM, epinephrine 100 μM, clonidine 10 μM, oxotremorine M 10 μM, FIG. 10) | ligand-induced mass redistribution signal (total change in response) [1]
1 | Clc1cccc(Cl)c1N=C1NCCN1 [clonidine] | induced mass redistribution signals |  | 
2 | C[N+](C)(C)CC#CCN1CCCC1=O [oxotremorine M] |  | almost no cell response | significantly larger responses in M1-CHO cells
3 | CCNC(=O)[C@H]1O[C@@H](n2cnc3c(N)ncnc32)[C@H](O)[C@@H]1O [NECA] | results in mass redistribution signals |  | results in mass redistribution signals
4 | Cc1scc2c1N(C(=O)CN1CCN(C)CC1)c1ccccc1NC2=O [telenzepine] |  |  | not its antagonist (telenzepine) results in significantly larger responses
